Experimental data from patent US5840728A, “Conformationally locked nucleoside analogs as antiherpetic agents” (priority 1997, dated 1998).
≈ marks a conversion by molar mass, not a printed value. Where “and” joins values, the source holds several entries; their conditions need not be identical. Equal values may be shown once. Read-outs that look alike come from different tables or passages of the source.

How the values were obtained:
[1] = Cytotoxicity in host cells / stationary cells (HFF); assay type: cell-based, human; settings: human, hff cells
Text: (§1) ^d CC50 = cytotoxic concentration in μg/mL that produces 50%

[2] = tested on: herpes viruses; experiment: Antiherpetic activity, overall; assay type: cell-based; settings: in words
[3] = tested on: HSV-1 (herpes simplex type 1); experiment: microbe, parasite or virus in culture
Text: (§2) Compounds 25 and 26 are (S)-methanocarba-T and (±)-(carba-T), respectively. (±)-carba-T was kindly provided by Dr. Y. Fulmer Shealy, Southern Research Institute, Birmingham, Ala. [drawing 5]

[4] = tested on: HSV-2 (herpes simplex type 2); experiment: microbe, parasite or virus in culture
Text: as §2

[5] = Cytotoxicity in growing (rapidly dividing) HFF; assay type: cell-based, human; settings: human, growing hff cells
[6] = tested on: HCMV (human cytomegalovirus); experiment: microbe, parasite or virus in culture; assay type: cell-based
Text: | ^f plaque reduction assay.

[7] = tested on: HCMV (human cytomegalovirus); experiment: microbe, parasite or virus in culture; assay type: cell-based; settings: for EC50: Human betaherpesvirus 5, Table 5, HCMV, read-out: EC50
[8] = tested on: HFF (human foreskin fibroblasts); experiment: Cytotoxicity in host cells / stationary cells (HFF); assay type: cell-based; settings: Table 5; host cell not given
Text: as §1

[9] = tested on: EBV (Epstein-Barr virus); experiment: microbe, parasite or virus in culture; assay type: cell-based; settings: human gammaherpesvirus 4, EBV
Text: as §2

[10] = Human alphaherpesvirus 1, Table 5, HSV-1
[11] = Human alphaherpesvirus 2, Table 5, HSV-2

EC50 [3, 10]	EC50 [4, 11]	EC50 [7]	SMILES	SI (CC50/EC50) [3]	SI (CC50/EC50) [4]	CC50 ([1]; Table 5, host cell not given)	SI (CC50/EC50) [7]	also measured
–	–	–	Cc1cn([C@@H]2C[C@H](CO)[C@@H](O)C2)c(=O)[nH]c1=O (relative stereo) [Compound 26, (±)-(carba-T), reference compound]	1	1	–	–	CC50 ([1]; Table 4, HSV-1 and HSV-2 lines, host cell not given): > 10 µg/mL; CC50 ([1]; stationary cells): > 100 µg/mL; antiherpetic activity [2]: did not exhibit antiherpetic activity; EC50 ([3]; Human alphaherpesvirus 1, Table 4, HSV-1, plaques reduced by 50%): > 10 µg/mL; EC50 ([4]; Human alphaherpesvirus 2, Table 4, HSV-2, plaques reduced by 50%): > 10 µg/mL; CC50 ([5]; rapidly dividing cells, read-out: CC50): 0.65 µg/mL (≈ 2.71 µM)
> 100 µg/mL	> 100 µg/mL	6.4 µg/mL (≈ 24.5 µM)	Nc1ncnc2c1ncn2[C@@]12C[C@H](O)[C@@H](CO)[C@@H]1C2 [(S)-DMC-A, reference compound]	1	1	> 100 µg/mL	> 15.6	EC50 ([6]; Human betaherpesvirus 5, Table 5, HCMV, plaque reduction assay, read-out: EC50): 2.4 µg/mL (≈ 9.19 µM); SI (CC50/EC50) ([6]; human foreskin fibroblasts): > 41.7; activity against HCMV ([7]; in words): active against HCMV
> 4 µg/mL	> 4 µg/mL	88.9 µg/mL (≈ 375 µM)	Nc1ccn([C@@]23C[C@H](O)[C@@H](CO)[C@@H]2C3)c(=O)n1 [(S)-DMC-C, reference compound]	< 3.7	< 3.7	–	> 1.1	–
> 20 µg/mL	> 20 µg/mL	> 20 µg/mL	Nc1nc2c(ncn2[C@@]23C[C@H](O)[C@@H](CO)[C@@H]2C3)c(=O)[nH]1 [(S)-DMC-G, reference compound]	< 3.7	< 3.7	–	< 2.3	–
> 20 µg/mL	> 20 µg/mL	> 100 µg/mL	O=c1ccn([C@@]23C[C@H](O)[C@@H](CO)[C@@H]2C3)c(=O)[nH]1 [(S)-DMC-U, reference compound]	< 3.0	< 3.0	59.1 µg/mL (≈ 248 µM)	1	CC50 [8]: > 100 µg/mL
–	–	–	Nc1nc2c(ncn2COCCO)c(=O)[nH]1 [ACV, acyclovir, reference compound]	–	–	–	–	EC50 ([3]; Human alphaherpesvirus 1, read-out: ACV (EC50), Table 4, HSV-1, acyclovir control): 0.3 µg/mL (≈ 1.33 µM); EC50 ([3]; Human alphaherpesvirus 1, read-out: Positive Control EC50, Table 3, HSV-1, HFF, positive control): 0.8 µg/mL (≈ 3.55 µM); ACV (EC50) ([3]; Table 4, HSV-1, acyclovir control): 0.15 µg/mL; Control EC50 ([3]; Table 5, HSV-1, control): 0.20 µg/mL; EC50 ([4]; Human alphaherpesvirus 2, read-out: ACV (EC50), Table 4, HSV-2, acyclovir control): 0.8 µg/mL (≈ 3.55 µM); EC50 ([4]; Human alphaherpesvirus 2, read-out: Positive Control EC50, Table 3, HSV-2, HFF, positive control): 4 µg/mL (≈ 17.8 µM); ACV (EC50) ([4]; Table 4, HSV-2, acyclovir control): 0.60 µg/mL; Control EC50 ([4]; Table 5, HSV-2, control): 1.8 µg/mL and 1.5 µg/mL; CC50 ([5]; Table 3, no virus, Growing HFF, positive control, read-out: Positive Control EC50 (line Growing HFF)): 40 µg/mL (≈ 178 µM); EC50 ([9]; Table 3, Daudi, positive control, read-out: Positive Control EC50): 0.1 µg/mL (≈ 0.444 µM); EC50 ([9]; Table 4, acyclovir control, read-out: ACV (EC50)): 0.1 µg/mL (≈ 0.444 µM)
